# In article PMC7915026, “Sulfaguanidine Hybrid with Some New Pyridine-2-One Derivatives: Design, Synthesis, and Antimicrobial Activity against Multidrug-Resistant Bacteria as Dual DNA Gyrase and DHFR Inhibitors” (Antibiotics, 2021):
# Where two headings read alike, the source gives them in different places.
# Experiments:
# [1] = system: S. aureus ATCC 33591; assay: MIC and MBC against multidrug-resistant strains; assay type: cell-based; conditions: Staphylococcus aureus, ATCC33591, S. aureus ATCC 33591; for MBC: read-out: MBC; for MIC: read-out: MIC
# Source text: (§1) Norfloxacin was used as a positive control for the multidrug resistance study.
# (§2) The experiment was repeating for three-times.
# [2] = system: E. coli ATCC BAA-196; assay: MIC and MBC against multidrug-resistant strains; assay type: cell-based; conditions: E. coli ATCC BAA-196
# Source text: as §1, §2
# [3] = system: P. aeruginosa ATCC BAA-2111; assay: MIC and MBC against multidrug-resistant strains; assay type: cell-based; conditions: P. aeruginosa ATCC BAA-2111
# Source text: as §1, §2
# [4] = system: S. aureus ATCC 43300; assay: MIC and MBC against multidrug-resistant strains; assay type: cell-based; conditions: Staphylococcus aureus, ATCC43300, S. aureus ATCC 43300; for MBC: read-out: MBC; for MIC: read-out: MIC
# Source text: as §1, §2
# [5] = system: MDRB strains; assay: MIC and MBC, ranges over the MDRB panel; assay type: cell-based; conditions: four MDRB strains
# Source text: as §1, §2
# [6] = system: S. aureus ATCC 33591; assay: Inhibition zone against multidrug-resistant bacteria; note: test concentration or dose not given here; assay type: cell-based; conditions: MDRB S. aureus ATCC 33591
# Source text: as §1
# (§3) The antimicrobial activity performed at the bacteriology laboratory, Botany and Microbiology Department, Faculty of Science, Al-Azhar University, Cairo, Egypt. The inhibition zone (IZ) of the tested derivatives expressed as the diameter (mm) according to the agar plate diffusion method.
# [7] = system: E. coli ATCC BAA-196; assay: as above; assay type: cell-based; conditions: MDRB E. coli ATCC BAA-196
# Source text: as §1, §3
# [8] = system: P. aeruginosa ATCC BAA-2111; assay: as above; assay type: cell-based; conditions: MDRB P. aeruginosa ATCC BAA-2111
# Source text: as §1, §3
# [9] = system: S. aureus ATCC 43300; assay: as above; assay type: cell-based; conditions: MDRB S. aureus ATCC 43300
# Source text: as §1, §3
# [10] = system: P. aeruginosa ATCC 27853; assay: MIC and MBC determination; assay type: cell-based; conditions: Pseudomonas aeruginosa, ATCC27853, P. aeruginosa
# [11] = system: CD4+ and CD8+ T lymphocytes; assay: In vivo T lymphocyte subsets from peripheral blood, flow cytometry; conditions: mice
# Source text: Activation of immune cells as CD4^+ and CD8^+ T cells is one possible mechanism of a drug’s immune stimulus activity. An increase in these cells is thought to be a good indicator of an active immune response to infections. So, our work extended to study the effect of the most promising derivatives (2d, 8, and 11) on T lymphocyte subsets (CD4^+ and CD8^+) from peripheral blood, and determined the relative level in model mice that analyzed by flow cytometry after the period of treating.
# In vitro intracellular killing activities for the most promising six derivatives 2a, 2b, 2d, 3a, 8, and 11 were performed according to reported methods.
# [12] = system: F. oxysporum (RCMB 008002); assay: MIC and MFC determination; assay type: cell-based
# [13] = system: E. coli ATCC 25922; assay: MIC and MBC determination; assay type: cell-based; conditions: Escherichia coli, ATCC25922, E. coli
# [14] = system: S. aureus ATCC 29213; assay: MIC and MBC determination; assay type: cell-based; conditions: Staphylococcus aureus, ATCC29213, S. aureus
# [15] = system: C. albicans (ATCC 10231); assay: MIC and MFC determination; assay type: cell-based
# [16] = system: B. subtilis ATCC 6633; assay: MIC and MBC determination; assay type: cell-based; conditions: Bacillus subtilis, ATCC6633, B. subtilis
# [17] = system: B. subtilis ATCC 6633; assay: Inhibition zone, paper disk/agar diffusion; note: test concentration or dose not given here; assay type: cell-based; conditions: B. subtilis; Na = no activity
# Source text: as §3
# [18] = system: F. oxysporum (RCMB 008002); assay: Inhibition zone, paper disk/agar diffusion; assay type: cell-based; conditions: Na = no activity; note: test concentration or dose not given here
# Source text: as §3
# [19] = system: E. coli ATCC 25922; assay: Inhibition zone, paper disk/agar diffusion; assay type: cell-based; conditions: E. coli; Na = no activity
# Source text: as §3
# [20] = system: S. aureus ATCC 29213; assay: Inhibition zone, paper disk/agar diffusion; note: test concentration or dose not given here; assay type: cell-based; conditions: S. aureus; Na = no activity
# Source text: as §3
# [21] = system: C. albicans (ATCC 10231); assay: Inhibition zone, paper disk/agar diffusion; assay type: cell-based; conditions: Na = no activity
# Source text: as §3
# [22] = system: E. faecalis ATCC 29212; assay: Inhibition zone, paper disk/agar diffusion; note: test concentration or dose not given here; assay type: cell-based; conditions: E. faecalis; Na = no activity
# Source text: as §3
# [23] = system: S. typhi ATCC 6539; assay: Inhibition zone, paper disk/agar diffusion; assay type: cell-based; conditions: S. typhi; Na = no activity
# Source text: as §3
# [24] = system: P. aeruginosa ATCC 27853; assay: Inhibition zone, paper disk/agar diffusion; assay type: cell-based; conditions: P. aeruginosa; Na = no activity
# Source text: as §3
# [25] = system: E. faecalis ATCC 29212; assay: MIC and MBC determination; assay type: cell-based; conditions: Enterococcus faecalis, ATCC29212, E. faecalis
# [26] = system: Salmonella typhi (S. typhi ATCC 6539); assay: microbe, parasite or virus in culture; assay type: cell-based; conditions: Salmonella enterica, Salmonella typhi
# [27] = molecular target: S. aureus DNA gyrase (Staphylococcus aureus, UniProt P0A0K8+P20831); assay: In vitro DNA gyrase supercoiling enzymatic assay; assay type: biochemical
# S. aureus DNA gyrase, sequence (P20831 whole entry): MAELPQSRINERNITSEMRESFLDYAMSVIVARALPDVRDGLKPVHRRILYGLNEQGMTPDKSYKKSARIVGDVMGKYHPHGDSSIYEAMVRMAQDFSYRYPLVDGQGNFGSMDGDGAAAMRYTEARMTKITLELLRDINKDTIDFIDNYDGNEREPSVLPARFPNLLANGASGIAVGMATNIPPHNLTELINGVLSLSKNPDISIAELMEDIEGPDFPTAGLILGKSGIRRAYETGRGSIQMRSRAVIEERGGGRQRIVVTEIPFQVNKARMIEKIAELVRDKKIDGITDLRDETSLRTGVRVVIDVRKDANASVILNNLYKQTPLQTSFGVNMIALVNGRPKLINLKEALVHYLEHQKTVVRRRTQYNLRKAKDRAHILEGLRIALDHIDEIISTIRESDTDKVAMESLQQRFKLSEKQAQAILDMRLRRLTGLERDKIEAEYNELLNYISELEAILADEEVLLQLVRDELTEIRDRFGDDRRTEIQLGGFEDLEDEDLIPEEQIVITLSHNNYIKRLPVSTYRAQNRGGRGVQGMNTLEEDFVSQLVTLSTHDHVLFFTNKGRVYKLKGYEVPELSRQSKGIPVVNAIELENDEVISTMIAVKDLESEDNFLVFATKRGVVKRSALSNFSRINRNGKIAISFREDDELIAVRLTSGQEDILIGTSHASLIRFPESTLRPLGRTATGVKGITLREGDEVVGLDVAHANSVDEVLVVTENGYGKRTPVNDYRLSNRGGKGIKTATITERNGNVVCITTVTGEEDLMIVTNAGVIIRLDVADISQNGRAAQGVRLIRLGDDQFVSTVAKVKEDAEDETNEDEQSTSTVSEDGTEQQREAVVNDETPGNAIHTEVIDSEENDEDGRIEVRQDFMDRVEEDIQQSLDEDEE
# S. aureus DNA gyrase, sequence (P0A0K8 whole entry): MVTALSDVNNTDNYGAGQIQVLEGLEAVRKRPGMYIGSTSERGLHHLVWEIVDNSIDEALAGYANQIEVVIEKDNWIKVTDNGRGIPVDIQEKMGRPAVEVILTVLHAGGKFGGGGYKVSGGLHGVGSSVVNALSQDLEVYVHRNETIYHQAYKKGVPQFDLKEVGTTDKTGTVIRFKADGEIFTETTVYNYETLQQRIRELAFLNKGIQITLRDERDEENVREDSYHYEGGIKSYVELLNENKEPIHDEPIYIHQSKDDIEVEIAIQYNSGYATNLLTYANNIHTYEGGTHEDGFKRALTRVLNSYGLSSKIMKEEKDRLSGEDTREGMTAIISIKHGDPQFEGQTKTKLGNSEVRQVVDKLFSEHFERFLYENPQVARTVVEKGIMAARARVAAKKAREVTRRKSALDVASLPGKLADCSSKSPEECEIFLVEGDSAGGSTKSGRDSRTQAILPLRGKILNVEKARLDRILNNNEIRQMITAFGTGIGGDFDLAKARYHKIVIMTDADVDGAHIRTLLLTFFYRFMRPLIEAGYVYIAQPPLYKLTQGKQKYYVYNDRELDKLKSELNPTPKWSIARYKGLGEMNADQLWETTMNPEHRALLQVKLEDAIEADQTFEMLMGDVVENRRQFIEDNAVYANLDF
# [28] = system: spleen and thymus; assay: In vivo immunomodulation: immune organ weight and indexes; set-up: Spleen index: unit not given here; conditions: mice
# Source text: Both the spleen and thymus have important antibacterial and fungal immune organ responses, and any change in weight, and indexes can reflect the level of immune regulation. Additionally, the relative spleen and thymus indexes are important indices for nonspecific immunity and potential immunomodulatory compounds that increase the spleen and thymus weight. This increase is due to immune cells’ stimulation in the spleen and thymus. […]
# [29] = Escherichia coli, ATCCBAA196, read-out: MBC
# [30] = Escherichia coli, ATCCBAA196, read-out: MIC
# [31] = Pseudomonas aeruginosa, ATCCBAA2111, read-out: MBC
# [32] = Pseudomonas aeruginosa, ATCCBAA2111, read-out: MIC
# Throughout, for Mean Diameter of Inhibition Zone: test concentration or dose not given here.
smiles,measurement,setting,value
"CCn1cc(C(=O)O)c(=O)c2cc(F)c(N3CCNCC3)cc21 [Norfloxacin, reference compound]",MBC,[1],4.38 ± 0.49 µM
same,MIC,[1],2.44 ± 0.45 µM
same,MBC,[2]; listed as Nor.,8.32 ± 0.47 µM
same,MIC,[2]; listed as Nor.,4.91 ± 0.69 µM
same,MBC,[2]; [29],8.32 µM
same,MIC,[2]; [30],4.91 µM
same,MBC,[3]; listed as Nor.,16.65 ± 0.19 µM
same,MIC,[3]; listed as Nor.,9.80 ± 0.41 µM
same,MBC,[3]; [31],16.6 µM
same,MIC,[3]; [32],9.8 µM
same,MBC,[4],7.82 ± 0.32 µM
same,MIC,[4],3.91 ± 0.21 µM
same,MBC range,[5],4.38 to 16.65 µM
same,MIC range,[5],2.44 to 9.80 µM
same,Mean Diameter of Inhibition Zone,[6],26 ± 0.5 mm
same,Mean Diameter of Inhibition Zone,[7],27 ± 0.98 mm
same,Mean Diameter of Inhibition Zone,[8],24 ± 0.47 mm
same,Mean Diameter of Inhibition Zone,[9],25 ± 0.5 mm
"N=C(N)NS(=O)(=O)c1ccc(NC(=O)c2cc3ccccc3oc2=N)cc1 [Compound 11, N-(4-(N-Carbamimidoylsulfamoyl)phenyl)-2-imino-2H-chromene-3-carboxamide]",MBC,[1],19.2 ± 0.65 µM
same,MIC,[1],10.1 ± 0.29 µM
same,MBC,[2]; [29],48 ± 0.81 µM
same,MIC,[2]; [30],24 ± 0.49 µM
same,MBC,[3]; [31],81.1 ± 0.86 µM
same,MIC,[3]; [32],40.5 ± 0.74 µM
same,MBC,[4],81.1 ± 0.85 µM
same,MIC,[4],40.52 ± 0.36 µM
same,MBC,[10]; read-out: MBC,144 ± 1.47 µM
same,MIC,[10]; read-out: MIC,72 ± 0.96 µM
same,T cells CD4+,[11],75.20 ± 0.97%
same,T cells CD8+,[11],24.05 ± 0.32%
same,MFC/MIC,[12],<2
same,MFC,"[12]; Fusarium oxysporum, RCMB008002, read-out: MFC",145.9 ± 1.25 µM
same,MIC,"[12]; Fusarium oxysporum, RCMB008002, read-out: MIC",81.08 ± 0.54 µM
same,MBC,[13]; read-out: MBC,40.5 ± 0.75 µM
same,MIC,[13]; read-out: MIC,20.3 ± 0.36 µM
same,MBC,[14]; read-out: MBC,40.5 ± 1.02 µM
same,MIC,[14]; read-out: MIC,20.3 ± 0.67 µM
same,MFC/MIC,[15],<2
same,MFC,"[15]; Candida albicans, ATCC10231, read-out: MFC",45.6 ± 0.47 µM
same,MIC,"[15]; Candida albicans, ATCC10231, read-out: MIC",24 ± 0.41 µM
same,MBC,[16]; read-out: MBC,17.2 ± 0.54 µM
same,MIC,[16]; read-out: MIC,10.1 ± 0.68 µM
same,Mean Diameter of the Inhibition Zone,[17],28 ± 0.11 mm
same,Mean Diameter of the Inhibition Zone,[18],18 ± 0.45 mm
same,Mean Diameter of the Inhibition Zone,[19],25 ± 0.43 mm
same,Mean Diameter of the Inhibition Zone,[20],24 ± 0.29 mm
same,Mean Diameter of the Inhibition Zone,[21],22 ± 0.21 mm
same,Mean Diameter of the Inhibition Zone,[22],29± 0.54 mm
same,Mean Diameter of the Inhibition Zone,[23],18 ± 0.36 mm
same,Mean Diameter of the Inhibition Zone,[24],24 ± 0.13 mm
same,Mean Diameter of Inhibition Zone,[6],22 ± 0.65 mm
same,Mean Diameter of Inhibition Zone,[7],19 ± 0.88 mm
same,Mean Diameter of Inhibition Zone,[8],23 ± 0.25 mm
same,Mean Diameter of Inhibition Zone,[9],17 ± 0.3 mm
same,MBC,[25]; read-out: MBC,81.1 ± 0.98 µM
same,MIC,[25]; read-out: MIC,40.5 ± 0.74 µM
same,MBC,[26]; read-out: MBC,94.7 ± 0.79 µM
same,MIC,[26]; read-out: MIC,48 ± 0.85 µM
same,IC50,[27],39.4 ± 1.15 µM
same,Spleen index,[28],0.008 ± 0.00
same,Spleen weight,[28],190 ± 0.074 mg
same,Thymus index,[28],0.455 ± 0.07 mg/g
same,Thymus weight,[28],13.67 ± 0.53 mg
